Patent publication US10351586B2, “Cytidine derivative dimers and applications thereof” (CHANGZHOU FANGYUAN PHARMACEUTICAL CO., LTD, priority 2014, dated 2019)
Marks after values point to notes of the source that are not given here.

System: HCT-116 human colon cancer xenografts
Assay: Tumor growth inhibition of HCT-116 human colon cancer xenografts in nude mice
Assay type: in vivo, Balb/c nude mice
Conditions: for Relative tumor proliferation rate (T/C %) / Relative tumor volume (RTV) / Tumor growth inhibition rate (TGI %) / Tumor volume of HCT-116 human colon cancer xenografts: single IP injection (QD×1), D1 and D2 400 mg/kg, D3 350 mg/kg, D4 300 mg/kg; for Tumor volume of HCT-116 human colon cancer xenografts: Mean±SEM
Summary of the method: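 HCT-116 cells grown in F-12 with 10% FBS, inoculated into nude mice at ~3×10^7 cells/mL. Tumour diameter measured three times weekly, volume as V=3/4π(D/2)^3; activity given as TGI (%) versus control and T/C (%) from relative tumour volume Vt/V0.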

[1] = D1 400 mg/kg Day 7, D2 400 mg/kg Day 9, D3 350 mg/kg Day 11, D4 300 mg/kg Day 11, single IP

Structure (SMILES): O=C(CCCC(=O)OC[C@H]1O[C@@H](n2ccc(NC(=O)OCc3ccccc3)nc2=O)C(F)(F)[C@@H]1O)OC[C@H]1O[C@@H](n2ccc(NC(=O)OCc3ccccc3)nc2=O)C(F)(F)[C@@H]1O [Compound D3, 1,5-di-[4-N-(benzyloxycarbonyl)-2′-deoxy-2′,2′-difluoro-cytidine]glutarate]
- Relative tumor proliferation rate, minimum [1]: 3.41%
- Tumor inhibition rate, maximum [1]: 98.54%
- Relative tumor proliferation rate (T/C %) (Day 0): 0.00%
- Relative tumor volume (RTV) (Day 0): 1.00
- Tumor growth inhibition rate (TGI %) (Day 0): 0.00%
- Tumor volume of HCT-116 human colon cancer xenografts (Day 0): 38.77 ± 4.33** mm^3
- Relative tumor proliferation rate (T/C %) (Day 1): 60.98%
- Relative tumor volume (RTV) (Day 1): 0.98 ± 0.12
- Tumor growth inhibition rate (TGI %) (Day 1): 79.83%
- Tumor volume of HCT-116 human colon cancer xenografts (Day 1): 36.40 ± 3.98** mm^3
- Relative tumor proliferation rate (T/C %) (Day 2): 49.58%
- Relative tumor volume (RTV) (Day 2): 0.98 ± 0.12
- Tumor growth inhibition rate (TGI %) (Day 2): 83.59%
- Tumor volume of HCT-116 human colon cancer xenografts (Day 2): 36.40 ± 3.98** mm^3
- Relative tumor proliferation rate (T/C %) (Day 4): 23.26%
- Relative tumor volume (RTV) (Day 4): 0.65 ± 0.10
- Tumor growth inhibition rate (TGI %) (Day 4): 92.26%
- Tumor volume of HCT-116 human colon cancer xenografts (Day 4): 23.00 ± 3.08** mm^3
- Relative tumor proliferation rate (T/C %) (Day 7): 6.76%
- Relative tumor volume (RTV) (Day 7): 0.34 ± 0.06
- Tumor growth inhibition rate (TGI %) (Day 7): 97.08%
- Tumor volume of HCT-116 human colon cancer xenografts (Day 7): 12.62 ± 3.10** mm^3
- Relative tumor proliferation rate (T/C %) (Day 9): 4.71%
- Relative tumor volume (RTV) (Day 9): 0.32 ± 0.05
- Tumor growth inhibition rate (TGI %) (Day 9): 97.86%
- Tumor volume of HCT-116 human colon cancer xenografts (Day 9): 12.62 ± 3.10** mm^3
- Relative tumor proliferation rate (T/C %) (Day 11): 3.41%
- Relative tumor volume (RTV) (Day 11): 0.37 ± 0.09
- Tumor growth inhibition rate (TGI %) (Day 11): 98.54%
- Tumor volume of HCT-116 human colon cancer xenografts (Day 11): 14.28 ± 3.69** mm^3
- Relative tumor proliferation rate (T/C %) (Day 14): 5.78%
- Relative tumor volume (RTV) (Day 14): 1.00 ± 0.00
- Tumor growth inhibition rate (TGI %) (Day 14): 97.43%
- Tumor volume of HCT-116 human colon cancer xenografts (Day 14): 36.98 ± 4.82** mm^3
- Relative tumor proliferation rate (T/C %) (Day 16): 10.49%
- Relative tumor volume (RTV) (Day 16): 2.17 ± 0.14
- Tumor growth inhibition rate (TGI %) (Day 16): 95.58%
- Tumor volume of HCT-116 human colon cancer xenografts (Day 16): 80.10 ± 11.07** mm^3
- Relative tumor proliferation rate (T/C %) (Day 18): 16.55%
- Relative tumor volume (RTV) (Day 18): 3.16 ± 0.39
- Tumor growth inhibition rate (TGI %) (Day 18): 93.97%
- Tumor volume of HCT-116 human colon cancer xenografts (Day 18): 120.40 ± 23.44** mm^3
- Relative tumor proliferation rate (T/C %) (Day 21): 23.70%
- Relative tumor volume (RTV) (Day 21): 5.55 ± 0.66
- Tumor growth inhibition rate (TGI %) (Day 21): 91.65%
- Tumor volume of HCT-116 human colon cancer xenografts (Day 21): 204.05 ± 36.25 mm^3
- Relative tumor proliferation rate (T/C %) (Day 23): 31.41%
- Relative tumor volume (RTV) (Day 23): 6.21 ± 0.61
- Tumor growth inhibition rate (TGI %) (Day 23): 90.30%
- Tumor volume of HCT-116 human colon cancer xenografts (Day 23): 229.06 ± 36.15 mm^3
- Relative tumor proliferation rate (T/C %) (Day 25): 33.40%
- Relative tumor volume (RTV) (Day 25): 7.22 ± 0.53
- Tumor growth inhibition rate (TGI %) (Day 25): 89.70%
- Tumor volume of HCT-116 human colon cancer xenografts (Day 25): 266.11 ± 39.63 mm^3
- Relative tumor proliferation rate (T/C %) (Day 28): 43.93%
- Relative tumor volume (RTV) (Day 28): 9.28 ± 0.73
- Tumor growth inhibition rate (TGI %) (Day 28): 87.09%
- Tumor volume of HCT-116 human colon cancer xenografts (Day 28): 347.17 ± 60.84 mm^3
- Relative tumor proliferation rate (T/C %) (Day 30): 52.09%
- Relative tumor volume (RTV) (Day 30): 12.93 ± 0.90
- Tumor growth inhibition rate (TGI %) (Day 30): 82.93%
- Tumor volume of HCT-116 human colon cancer xenografts (Day 30): 479.01 ± 75.54 mm^3
- Inhibition of growth of HCT-116 human colon cancer xenografts (in words) (single IP injection, 300-400 mg/kg): higher tumor inhibition rates
